Assay results published in patent US6342501B1, “Pyrrolo[2,3-d] pyrimidines as antiviral agents” (The Regents of the University of Michigan, priority 1994, dated 2002).
Where two headings read alike, the source gives them in different places.

Experiments:
[1] = system: human cytomegalovirus (HCMV); assay: microbe, parasite or virus in culture; assay type: cell-based, Towne strain; conditions: for IC50: Human betaherpesvirus 5, HFF, read-out: HCMV; for antiviral activity against HCMV (in words): comment on Table 1 data
Procedure: (§1) The routine growth and passage of KB and BSC-1 cells was performed in monolayer cultures using minimal essential medium (MEM) with either Hanks salts [MEM(H)] or Earle salts [MEM(E)] supplemented with 10% calf serum. The sodium bicarbonate concentration was varied to meet the buffering capacity required. Cultures of diploid human foreskin fibroblast (HFF) or MRC-5 cells were grown in medium consisting of MEM(E) with 10% fetal bovine serum. Cells were passaged at 1:2 to 1:10 dilutions according to conventional procedures by using 0.05% trypsin plus 0.02% EDTA in a HEPES buffered salt solution (HBS) [Shipman, C., Jr., Proc. Soc. […] HFF and MRC-5 cells were passaged only at 1:2 dilutions. The Towne strain, plaque-purified isolate Po, of HCMV was kindly provided by Dr. Mark Stinski, University of Iowa. The KOS strain of HSV-1 was used in most experiments and was provided by Dr. Sandra K. Weller, University of Conn.
Stock HCMV was prepared by infecting HFF cells at a multiplicity of infection (m.o.i.) of <0.01 plaque-forming units (p.f.u.) per cell. Cell growth medium was changed every four days until cytopathology was evident in all cells (approximately 21 days). Supernatant fluids were retained as the virus stock.
Virus titers were determined using monolayer cultures of HFF cells for HCMV and monolayer cultures of BSC-1 cells for HSV-1 as described earlier [Prichard, M. N., et al., J. Virol. […] Briefly, HFF or BSC-1 cells were planted as described above in 96-well cluster dishes and incubated overnight at 37. degree. C. in a humidified 3% C02 -97% air atmosphere. The next day cultures were inoculated with HCMV or HSV-1 and serially diluted 1:3 across the remaining eleven columns of the 96-well plate. Cultures were incubated at 37. degree. C. for 2 hr to permit virus adsorption and then virus inoculum was replaced with 0.2 ml of fresh medium. Cultures were incubated for seven days for HCMV, two or three days for HSV-1, the medium was removed, and the cell sheets were stained with 0.1% crystal violet in 20% methanol.
HFF cells in 24-well cluster dishes were infected with approximately 100 p.f.u. of HCMV per cm^2 cell sheet using the procedures detailed above. Following virus adsorption, compounds dissolved in growth medium were added to duplicate wells in four to eight selected concentrations. After incubation at 37° C. for 7 to 10 days, cell sheets were fixed, stained with crystal violet and microscopic plaques enumerated as described above.
After virus adsorption, inoculum was replaced with 0.2 mL of fresh medium containing test compounds. The first row of 12 wells was left undisturbed and served as virus controls. Each well in the second row received an additional 0.1 mL of medium with test compound at three times the desired final concentration. The contents of the 12 wells were mixed by repeated pipetting and then serially diluted 1:3 along the remaining wells. In this manner, six compounds could be tested in duplicate on a single plate with concentrations from […]. Plates were incubated at 37° C. for seven days, subjected to one cycle of freezing and thawing; aliquots from each of the eight wells of a given column were transferred to the first column of a fresh 96-well monolayer culture of HFF cells. Contents were mixed and serially diluted 1:3 across the remaining eleven columns of the secondary plate. Each column of the original primary plate was diluted across a separate plate in this manner. Cultures were incubated, plaques were enumerated, and titers calculated as described above.
(§2) Dose-response relationships were constructed by linearly regressing the percent inhibition of parameters derived in the preceding sections against logarithm 10 drug concentrations. […] Samples containing positive controls (acyclovir for HSV-1 and ganciclovir for HCMV) were used in all assays.

[2] = system: herpes simplex virus type 1 (HSV-1); assay: HSV-1 ELISA in BSC-1 cells; assay type: cell-based, KOS strain; conditions: read-out: HSV-1
Procedure: as §1
High titer HSV-1 stocks were prepared by infecting BSC cells at an m.o.i. of <0.1 as detailed previously [Turk, S. R., et al., Antimicrob.
Ninety-six-well cluster dishes were planted with 10,000 BSC-1 cells per well in 200 μL per well of MEM(E) plus 10% calf serum. After overnight incubation at 37° C., selected drug concentrations in quadruplicate and HSV-1 at a concentration of 100 p.f.u./well were added. Following a 3-day incubation at 37° C., medium was removed, plates were blocked, rinsed, and horse radish peroxidase conjugated rabbit anti-HSV-1 antibody was added. Following removal of the antibody containing solution, plates were rinsed, and then developed by adding 150 μL per well of a solution of tetramethylbenzidine as substrate. The reaction was stopped with H2SO4 and absorbance was read at 450 and 570 nm. Drug effects were calculated as a percentage of the reduction in absorbance in the presence of each drug concentration compared to absorbance obtained with virus in the absence of drug.
as §2

[3] = system: human foreskin fibroblasts (HFF cells); assay: Cytotoxicity in stationary HFF cells (microscopic inspection of plaque assay cells); assay type: cell-based; conditions: read-out: HFF
Procedure: (§3) Two different assays were used to explore cytotoxicity of selected compounds: (i) Cytotoxicity produced in stationary HFF cells was determined by microscopic inspection of cells used in plaque assays which were not affected by the virus [Turk, S. R., et al, Antimicrob.
as §2

[4] = system: KB cells; assay: Cytotoxicity: KB cell growth (crystal violet staining); assay type: cell-based; conditions: Homo sapiens, read-out: KBgrv
Procedure: as §3
Briefly, 96-well cluster dishes were planted with KB cells at 3000-5000 cells per well. After overnight incubation at 37° C., test compound was added in quadruplicate at six to eight concentrations. Plates were incubated at 37° C for 48 hours in a CO2 incubator, rinsed, fixed with 95% ethanol, and stained with 0.1% crystal violet. Acidified ethanol was added and plates read at 570 nm in a spectrophotometer designed to read 96-well ELISA assay plates.
as §2

[5] = Human alphaherpesvirus 1, BSC-1, 72 h
[6] = Human alphaherpesvirus 1, 72 h, Table 1, fifty-percent inhibitory concentration, ELISA, BSC-1 cells, 3-day incubation
[7] = Table 1, cytotoxicity, stationary HFF cells, visual
[8] = Table 1, cytotoxicity, KB cell growth, 48 hours

Cc1ccccc1Cn1cc(C(N)=O)c2c(N)ncnc21 [Compound 636, 4-amino-7-(2-methylbenzyl)-pyrrolo[2,3-d]pyrimidine-5-carboxamide]
IC50 [1]: 14.5 µM
IC50 [2, 5]: > 100 µM
IC50 ([3]; HFF): 100 µM
IC50 ([4]; KB, 48 h): ≥ 222 µM

Cc1ccc(Cn2cc(C(N)=O)c3c(N)ncnc32)cc1 [Compound 658, 4-amino-7-(4-methylbenzyl)-pyrrolo [2,3-d]pyrimidine-5-carboxamide]
IC50 [1]: 181 µM
IC50 [2, 5]: > 100 µM
IC50 ([3]; HFF): 141 µM
IC50 ([4]; KB, 48 h): ≥ 222 µM

NC(=O)c1cn(Cc2ccccc2)c2ncnc(N)c12 [Compound 659, 4-amino-7-benzyl-pyrrolo[2,3-d]pyrimidine-5-carboxamide]
IC50 [1]: 171 µM
IC50 [2, 5]: 32.6 µM
IC50 ([3]; HFF): 118 µM
IC50 ([4]; KB, 48 h): 75 µM

Cc1cccc(Cn2cc(C(N)=O)c3c(N)ncnc32)c1 [Compound 826, 4-amino-7-(3-methylbenzyl)-pyrrolo[2,3-d]pyrimidine-5-carboxamide]
IC50 [1]: ≥ 222 µM
IC50 [2, 5]: > 100 µM
IC50 ([3]; HFF): ≥ 222 µM
IC50 ([4]; KB, 48 h): ≥ 222 µM

COc1ccc(Cn2cc(C(N)=O)c3c(N)ncnc32)cc1 [Compound 839, 4-amino-7-(4-methoxybenzyl)-pyrrolo[2,3-d]pyrimidine-5-carboxamide]
IC50 [1]: 13 µM
antiviral activity against HCMV (in words) [1]: good to excellent antiviral activity
IC50 [2, 5]: 35 µM
IC50 ([3]; HFF): 127 µM
IC50 ([4]; KB, 48 h): 47 µM

CC(C)(C)c1ccc(Cn2cc(C(N)=O)c3c(N)ncnc32)cc1 [Compound 845, 4-amino-7-(4-t-butylbenzyl)-pyrrolo[2,3-d]pyrimidine-5-carboxamide]
IC50 [1]: 28 µM
IC50 [2, 5]: 50 µM
IC50 ([3]; HFF): 100 µM
IC50 ([4]; KB, 48 h): 1 µM

N#Cc1c(N)n(CC=Cc2ccccc2)c2ncnc(N)c12 [Compound 1329, 4,6-diamino-7-(3-phenyl)prop-2-enyl-pyrrolo[2,3-d]pyrimidine-5-carbonitrile]
IC50 [1]: 19 µM
IC50 [2, 6]: 40 µM
IC50 [3, 7]: 46 µM
IC50 [4, 8]: 33 µM

N#Cc1c(Br)n(Cc2ccc([N+](=O)[O-])cc2)c2ncnc(N)c12 [Compound 1331, 4-amino-6-bromo-7-(4-nitrobenzyl)-pyrrolo[2,3-d]pyrimidine-5-carbonitrile]
IC50 [1]: > 10 µM
IC50 [2, 6]: > 100 µM
IC50 [3, 7]: > 10 µM
IC50 [4, 8]: > 100 µM

N#Cc1c(Br)n(CCCc2ccccc2)c2ncnc(N)c12 [Compound 1347, 4-amino-6-bromo-7-(3-phenyl)propyl-pyrrolo[2,3-d]pyrimidine-5-carbonitrile]
IC50 [1]: > 10 µM
IC50 [2, 6]: ≥ 222 µM
IC50 [3, 7]: > 10 µM
IC50 [4, 8]: > 100 µM

N#Cc1c(N)n(Cc2ccc([N+](=O)[O-])cc2)c2ncnc(N)c12 [Compound 1348, 4,6-diamino-7-(4-nitrobenzyl)-pyrrolo[2,3-d]pyrimidine-5-carbonitrile]
IC50 [1]: 0.6 µM
antiviral activity against HCMV (in words) [1]: good to excellent antiviral activity
IC50 [2, 6]: 156 µM
IC50 [3, 7]: > 10 µM
IC50 [4, 8]: > 100 µM

N#Cc1c(N)n(CCCc2ccccc2)c2ncnc(N)c12 [Compound 1350, 4,6-diamino-7-(3-phenyl)propyl-pyrrolo[2,3-d]pyrimidine-5-carbonitrile]
IC50 [1]: 5 µM
antiviral activity against HCMV (in words) [1]: excellent activity
IC50 [2, 6]: 121 µM
IC50 [3, 7]: > 100 µM
IC50 [4, 8]: 50 µM

N#Cc1c(Br)n(CCc2ccccc2)c2ncnc(N)c12 [Compound 1351, 4-amino-6-bromo-7-(2-phenyl)ethyl-pyrrolo[2,3-d]pyrimidine-5-carbonitrile]
IC50 [1]: 1 µM
antiviral activity against HCMV (in words) [1]: excellent activity
IC50 [2, 6]: ≥ 222 µM
IC50 [3, 7]: > 100 µM
IC50 [4, 8]: > 100 µM

N#Cc1c(N)n(Cc2ccc(N)cc2)c2ncnc(N)c12 [Compound 1352, 4,6-diamino-7-(4-aminobenzyl)-pyrrolo[2,3-d]pyrimidine-5-carbonitrile]
IC50 [1]: > 100 µM
antiviral activity against HCMV (in words) [1]: good to excellent antiviral activity
IC50 [2, 6]: 100 µM
IC50 [3, 7]: > 100 µM
IC50 [4, 8]: 146 µM

N#Cc1c(Br)n(Cc2ccc(F)cc2)c2ncnc(N)c12 [Compound 1353, 4-amino-6-bromo-7-(4-flurobenzyl)-pyrrolo[2,3-d]pyrimidine-5-carbonitrile]
IC50 [1]: 1.4 µM
IC50 [2, 6]: 60 µM
IC50 [3, 7]: 116 µM
IC50 [4, 8]: > 100 µM

N#Cc1c(N)n(Cc2ccc(Cl)cc2)c2ncnc(N)c12 [Compound 1356, 4,6-diamino-7-(4-chlorobenzyl)-pyrrolo[2,3-d]pyrimidine-5-carbonitrile]
IC50 [1]: 0.2 µM
antiviral activity against HCMV (in words) [1]: good to excellent antiviral activity
IC50 [2, 6]: 17 µM
IC50 [3, 7]: 46 µM
IC50 [4, 8]: 76 µM

N#Cc1cn(Cc2ccc([N+](=O)[O-])cc2)c2ncnc(N)c12 [Compound 1360, 4-amino-7-(4-nitrobenzyl)-pyrrolo[2,3-d]pyrimidine-5-carbonitrile]
IC50 [1]: 1.6 µM
antiviral activity against HCMV (in words) [1]: good to excellent antiviral activity
IC50 [2, 6]: > 100 µM
IC50 [3, 7]: > 10 µM
IC50 [4, 8]: > 100 µM

N#Cc1c(Br)n(CC=Cc2ccccc2)c2ncnc(N)c12 [Compound 1361, 4-amino-6-bromo-7-(3-phenyl)prop-2-enyl-pyrrolo[2,3-d]pyrimidine-5-carbonitrile]
IC50 [1]: > 100 µM
IC50 [2, 6]: > 100 µM
IC50 [3, 7]: > 100 µM
IC50 [4, 8]: > 100 µM

N#Cc1cn(CCCc2ccccc2)c2ncnc(N)c12 [Compound 1362, 4-amino-7-(3-phenyl)propyl-pyrrolo[2,3-d]pyrimidine-5-carbonitrile]
IC50 [1]: > 10 µM
IC50 [2, 6]: > 100 µM
IC50 [3, 7]: > 10 µM
IC50 [4, 8]: > 100 µM

CC(c1ccccc1)n1c(Br)c(C#N)c2c(N)ncnc21 (centres unmarked) [Compound 1363, 4-amino-6-bromo-7-((2-phenyl)eth-2-yl)-pyrrolo[2,3-d]pyrimidine-5-carbonitrile]
IC50 [1]: 2.7 µM
antiviral activity against HCMV (in words) [1]: good to excellent antiviral activity
IC50 [2, 6]: 90 µM
IC50 [3, 7]: > 100 µM
IC50 [4, 8]: 50 µM

CNc1ncnc2c1c(C#N)c(Br)n2CCc1ccccc1 [Compound 1463, 4-methylamino-6-bromo-7-(2-phenyl)ethyl-pyrrolo[2,3-d]pyrimidine-5-carbonitrile]
IC50 [1]: > 10 µM
IC50 [3, 7]: > 10 µM
